Here are results for 20 molecules from US11053218B2, “3-(1-oxoisoindolin-2-yl)piperidine-2,6-dione derivatives and uses thereof” (Novartis AG, priority 2017, dated 2021).

Read-outs that look alike come from different tables or passages of the source. Bounds are passed on as bounds.

Assay type in all cases: cell-based
For one experiment, the target named is IKZF2 (Homo sapiens, UniProt Q96SW2+Q9UKS7). In words: Prolabel quantification of IKZF2 protein levels in 293GT cells.
The target of another experiment is IKZF1 (Homo sapiens, UniProt Q13422+Q96SW2). In words: Prolabel quantification of IKZF1 protein levels in 293GT cells. The settings on record: Prolabel assay, read-out: IKZF1 EC50.
IKZF1, sequence (Q13422 whole entry): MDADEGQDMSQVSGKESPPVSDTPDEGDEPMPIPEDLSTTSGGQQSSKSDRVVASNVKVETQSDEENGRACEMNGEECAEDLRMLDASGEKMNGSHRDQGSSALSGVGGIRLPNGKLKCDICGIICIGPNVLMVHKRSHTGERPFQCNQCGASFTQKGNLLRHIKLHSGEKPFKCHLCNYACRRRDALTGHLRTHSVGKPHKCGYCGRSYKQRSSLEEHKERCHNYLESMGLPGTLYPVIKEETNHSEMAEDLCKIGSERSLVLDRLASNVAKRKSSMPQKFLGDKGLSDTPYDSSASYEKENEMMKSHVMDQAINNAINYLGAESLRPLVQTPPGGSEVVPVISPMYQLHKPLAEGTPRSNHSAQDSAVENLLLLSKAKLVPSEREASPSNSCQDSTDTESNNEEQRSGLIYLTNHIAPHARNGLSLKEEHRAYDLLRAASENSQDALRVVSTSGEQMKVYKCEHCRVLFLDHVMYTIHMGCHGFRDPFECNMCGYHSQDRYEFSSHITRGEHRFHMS
IKZF1, sequence (Q96SW2 whole entry): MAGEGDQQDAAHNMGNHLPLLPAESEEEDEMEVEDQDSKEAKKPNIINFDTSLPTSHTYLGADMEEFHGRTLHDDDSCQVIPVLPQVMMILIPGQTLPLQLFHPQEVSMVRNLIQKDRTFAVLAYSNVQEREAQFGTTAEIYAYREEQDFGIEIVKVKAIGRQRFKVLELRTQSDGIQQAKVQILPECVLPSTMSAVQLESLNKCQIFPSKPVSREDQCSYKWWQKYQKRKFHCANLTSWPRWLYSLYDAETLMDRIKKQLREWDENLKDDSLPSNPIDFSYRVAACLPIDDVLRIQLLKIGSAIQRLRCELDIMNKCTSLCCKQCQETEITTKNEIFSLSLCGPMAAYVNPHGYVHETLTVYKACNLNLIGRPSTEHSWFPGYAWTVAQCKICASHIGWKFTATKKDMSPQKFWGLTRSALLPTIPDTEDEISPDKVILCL
IKZF1, sequence (Q16531 whole entry partner): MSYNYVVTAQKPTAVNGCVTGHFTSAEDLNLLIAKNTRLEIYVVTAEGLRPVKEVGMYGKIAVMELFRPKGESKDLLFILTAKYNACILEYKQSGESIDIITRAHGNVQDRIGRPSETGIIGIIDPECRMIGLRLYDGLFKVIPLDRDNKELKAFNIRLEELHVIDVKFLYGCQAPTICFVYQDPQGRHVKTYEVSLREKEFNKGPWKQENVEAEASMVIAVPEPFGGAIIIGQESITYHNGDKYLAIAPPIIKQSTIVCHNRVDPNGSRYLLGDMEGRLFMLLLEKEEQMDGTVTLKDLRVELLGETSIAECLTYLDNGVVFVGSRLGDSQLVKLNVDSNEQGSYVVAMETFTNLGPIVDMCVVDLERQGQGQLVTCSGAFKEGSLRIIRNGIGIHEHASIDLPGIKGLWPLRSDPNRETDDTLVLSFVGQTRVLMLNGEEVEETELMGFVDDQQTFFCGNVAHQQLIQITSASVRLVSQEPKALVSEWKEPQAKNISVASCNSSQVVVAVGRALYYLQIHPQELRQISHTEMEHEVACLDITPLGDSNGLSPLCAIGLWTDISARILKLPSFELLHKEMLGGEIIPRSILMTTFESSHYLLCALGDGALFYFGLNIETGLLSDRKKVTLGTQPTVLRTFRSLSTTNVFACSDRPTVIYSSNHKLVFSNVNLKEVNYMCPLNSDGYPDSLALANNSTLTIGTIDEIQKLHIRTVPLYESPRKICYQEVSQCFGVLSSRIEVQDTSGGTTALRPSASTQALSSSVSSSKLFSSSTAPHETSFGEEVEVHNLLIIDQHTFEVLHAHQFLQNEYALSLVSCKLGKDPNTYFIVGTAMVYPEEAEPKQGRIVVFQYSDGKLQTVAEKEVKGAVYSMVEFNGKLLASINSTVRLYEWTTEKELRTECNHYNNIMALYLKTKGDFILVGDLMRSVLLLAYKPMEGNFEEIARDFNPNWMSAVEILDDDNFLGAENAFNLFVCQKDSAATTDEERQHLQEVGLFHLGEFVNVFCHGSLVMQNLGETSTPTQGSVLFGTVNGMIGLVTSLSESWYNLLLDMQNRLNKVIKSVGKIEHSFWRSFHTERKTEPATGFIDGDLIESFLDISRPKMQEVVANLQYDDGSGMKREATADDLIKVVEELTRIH
In the next experiment the target is GSPT1 (Homo sapiens, UniProt P15170+Q96SW2). In words: Prolabel quantification of GSPT1 protein levels in 293GT cells. The settings on record: Prolabel assay, read-out: GSPT1 EC50. On the procedure:
The Prolabel system from DiscoverX was used to develop high-throughput and quantitative assays to measure changes in IKZF1, IKZF2 and GSPT1 protein levels in response to compounds. The prolabel tag was derived from the alpha fragment of beta galactosidase and has the following protein sequence: mssnslavvlqrrdwenpgvtqlnrlaahppfaswrnseeartdrpsqqlrslnge. The complementary fragment of beta-galactosidase (from DiscoverX), is added to the prolabel tag to form an active beta galactosidase enzyme whose activity can be precisely measured. In this way, the levels of a fusion protein with the prolabel tag can be quantified in cell lysates.
Lentiviral vectors, based on the Invitrogen pLenti6.2/V5 DEST backbone, were constructed that placed the prolabel tag upstream of IKZF1, IKZF2 or GSPT1 and expressed the fusion protein from a CMV promoter.
To ensure moderate and consistent expression of the prolabel fusion proteins across all cells in the population, stable cell lines were constructed from cells expressing a single copy of the construct. Lentivirus packaged with the constructs was made using the Virapower kit from Invitrogen.
The levels of prolabel tagged fusion proteins in compound treated cell lines were measured as follows:
Day 1, Cells were diluted to 1.0×10^6 cells/ml in normal growth medium. 17.5 μL of cells were plated in each well of a solid white 384 well plate. Plates were incubated overnight in a 37° C. tissue culture incubator.
Day 2, Serial dilutions of compounds were made in 384 well plates from 10 mM stocks. 15 μL of DMSO was added to each well of a 384 well plate. In the first column 15 μL of stock compound was added. The solution was mixed and 15 μL was transferred to the next column. This was repeated until 20 two-fold dilutions were prepared. 2.5 μL of diluted compounds were transferred into 60 μL of cell culture medium in another 384 well plate, and mixed well. 2.5 μL of this mixture was added to the plated cells. The final DMSO concentration was 0.5% and the highest concentration of compound was 50 μM. Plates were incubated overnight (e.g., about 14 h, 18 h, or 24 h) in a 37° C. tissue culture incubator.
Day 3, Plates were removed from the incubator and allowed to equilibrate at rt for 30 minutes. Prolabel substrate (DiscoverX PathHunter Prolabel Detection Kit, User manual: 93-0180) was added as described by the manufacturers protocols. Plates were incubated at rt for three hours and luminescence was read using an Envision reader (Perkin Elmer) Data was analyzed and visualized using the Spotfire software package.

[1] abbreviates: 24 h, 10 μM, 24 h, 293GT cells; read-out: IKZF2 % protein reduction at 10 μM, 24 h.
Setting [2] is: Prolabel assay, 293GT cells; read-out: IKZF2 EC50.

IKZF2, sequence (Q9UKS7 whole entry): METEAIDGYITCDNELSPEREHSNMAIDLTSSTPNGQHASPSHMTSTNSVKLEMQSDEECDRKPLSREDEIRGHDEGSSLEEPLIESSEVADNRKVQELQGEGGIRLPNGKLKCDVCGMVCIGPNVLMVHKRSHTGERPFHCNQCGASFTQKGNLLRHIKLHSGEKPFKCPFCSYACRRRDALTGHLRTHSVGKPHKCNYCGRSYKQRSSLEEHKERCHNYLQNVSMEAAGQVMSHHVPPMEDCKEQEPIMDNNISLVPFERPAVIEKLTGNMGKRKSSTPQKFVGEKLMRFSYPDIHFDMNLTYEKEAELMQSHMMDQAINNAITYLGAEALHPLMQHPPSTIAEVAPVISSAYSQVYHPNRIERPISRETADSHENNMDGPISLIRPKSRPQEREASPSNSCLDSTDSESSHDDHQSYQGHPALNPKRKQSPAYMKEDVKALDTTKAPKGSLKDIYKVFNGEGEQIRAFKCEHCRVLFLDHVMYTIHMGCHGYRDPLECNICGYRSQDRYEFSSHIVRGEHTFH
IKZF2, sequence (Q96SW2 whole entry): as the sequence (Q96SW2 whole entry) above
IKZF2, sequence (Q16531 whole entry partner): as the sequence (Q16531 whole entry partner) above
GSPT1, sequence (P15170 whole entry, the tested form may be a part): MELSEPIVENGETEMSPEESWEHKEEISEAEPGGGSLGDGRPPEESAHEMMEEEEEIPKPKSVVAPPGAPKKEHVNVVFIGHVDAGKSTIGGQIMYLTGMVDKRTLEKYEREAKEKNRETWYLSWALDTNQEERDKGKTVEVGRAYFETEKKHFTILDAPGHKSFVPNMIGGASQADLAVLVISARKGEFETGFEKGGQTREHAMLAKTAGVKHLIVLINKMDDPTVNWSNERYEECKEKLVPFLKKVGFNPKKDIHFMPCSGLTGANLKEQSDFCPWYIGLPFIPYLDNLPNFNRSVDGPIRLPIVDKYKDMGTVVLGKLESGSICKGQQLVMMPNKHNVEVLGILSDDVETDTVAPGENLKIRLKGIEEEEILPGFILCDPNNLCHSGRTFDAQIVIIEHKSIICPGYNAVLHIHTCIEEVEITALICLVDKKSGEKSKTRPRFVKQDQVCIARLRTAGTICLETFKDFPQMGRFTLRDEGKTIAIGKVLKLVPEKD
GSPT1, sequence (Q96SW2 whole entry, the tested form may be a part): as the sequence (Q96SW2 whole entry) above
GSPT1, sequence (Q16531 whole entry partner, the tested form may be a part): as the sequence (Q16531 whole entry partner) above

Take `O=C1CCC(N2Cc3cc(C4CCN(Cc5cccnc5)CC4)ccc3C2=O)C(=O)N1` (centres unmarked) [Compound I-59, 3-(1-oxo-5-(1-(pyridin-3-ylmethyl)piperidin-4-yl)isoindolin-2-yl)piperidine-2,6-dione]: on IKZF2 (setting [1]), the inhibition at 10 µM worked out at 80%. The results for the DC50 on IKZF2 (setting [2]), at IKZF1 and at GSPT1 were 0.031 µM, greater than 30 µM and greater than 30 µM, respectively.
In the case of `O=C1CCC(N2Cc3cc(C4CCN(Cc5ccc(OC(F)F)cc5)CC4)ccc3C2=O)C(=O)N1` (centres unmarked) [Compound I-77, 3-(5-(1-(4-(difluoromethoxy)benzyl)piperidin-4-yl)-1-oxoisoindolin-2-yl)piperidine-2,6-dione], the inhibition at 10 µM on IKZF2 (setting [1]) was 80%. Moreover, the values for the DC50 at IKZF2 (setting [2]), at IKZF1 and on GSPT1 were 0.007 µM, greater than 30 µM and greater than 30 µM, respectively.
`O=C1CCC(N2Cc3cc(C4CCN(Cc5cccn6nccc56)CC4)ccc3C2=O)C(=O)N1` (centres unmarked) [Compound I-128, 3-(1-oxo-5-(1-(pyrazolo[1,5-a]pyridin-4-ylmethyl)piperidin-4-yl)isoindolin-2-yl)piperidine-2,6-dione]: the inhibition at 10 µM on IKZF2 (setting [1]) was determined as 75%. Moreover, the figures for the DC50 at IKZF2 (setting [2]), at IKZF1 and at GSPT1 were 0.012 µM, greater than 30 µM and greater than 30 µM, respectively.
For `CC(C)Oc1cccc(CN2CCC(c3ccc4c(c3)CN(C3CCC(=O)NC3=O)C4=O)CC2)c1` (centres unmarked) [Compound I-108, 3-(5-(1-(3-isopropoxybenzyl)piperidin-4-yl)-1-oxoisoindolin-2-yl)piperidine-2,6-dione], the inhibition at 10 µM at IKZF2 (setting [1]) was found to be 65%. Also, the DC50 was 0.023 µM at IKZF2 (setting [2]), greater than 30 µM on IKZF1 and greater than 30 µM on GSPT1.
For `Cc1cc(C)cc(CN2CCC(c3ccc4c(c3)CN(C3CCC(=O)NC3=O)C4=O)CC2)c1` (centres unmarked) [Compound I-159, 3-(5-(1-(3,5-dimethylbenzyl)piperidin-4-yl)-1-oxoisoindolin-2-yl)piperidine-2,6-dione], the inhibition at 10 µM at IKZF2 (setting [1]) worked out at 55%. Besides, the DC50 on IKZF2 (setting [2]) was 0.019 µM; at IKZF1, greater than 50 µM; on GSPT1, greater than 50 µM.
On to `CC(c1ccccc1)N1CCC(c2ccc3c(c2)CN(C2CCC(=O)NC2=O)C3=O)CC1` (racemic) [Compound I-62, 3-(1-oxo-5-(1-(1-phenylethyl)piperidin-4-yl)isoindolin-2-yl)piperidine-2,6-dione], for which, at IKZF2 (setting [1]), the inhibition at 10 µM came to 75%. Besides, the values for the DC50 at IKZF2 (setting [2]), at IKZF1 and at GSPT1 were 0.007 µM, greater than 50 µM and greater than 30 µM, respectively.
Consider `O=C1CCC(N2Cc3cc(C4CCN(Cc5cc[nH]n5)CC4)ccc3C2=O)C(=O)N1` (centres unmarked) [Compound I-118, 3-(5-(1-((1H-pyrazol-3-yl)methyl)piperidin-4-yl)-1-oxoisoindolin-2-yl)piperidine-2,6-dione], for which the inhibition at 10 µM at IKZF2 (setting [1]) is 55%. The DC50 on IKZF2 (setting [2]) is 0.065 µM; on IKZF1, greater than 50 µM; at GSPT1, greater than 50 µM.
In the case of `O=C1CCC(N2Cc3cc([C@@H]4CCCNCC4)ccc3C2=O)C(=O)N1` (single isomer, unassigned) [Compound I-166, 3-(5-(azepan-4-yl)-1-oxoisoindolin-2-yl)piperidine-2,6-dione], the inhibition at 10 µM on IKZF2 (setting [1]) turned out to be 25%. The DC50 on IKZF1 and on GSPT1 was greater than 50 µM throughout.
With `O=C1CCC(N2Cc3cc(C4CCN(Cc5cc(F)c(O)c(F)c5)CC4)ccc3C2=O)C(=O)N1` (centres unmarked) [Compound I-156, 3-(5-(1-(3,5-difluoro-4-hydroxybenzyl)piperidin-4-yl)-1-oxoisoindolin-2-yl)piperidine-2,6-dione], the inhibition at 10 µM at IKZF2 (setting [1]) stood at 70%. Also, the values for the DC50 at IKZF2 (setting [2]), on IKZF1 and at GSPT1 were 0.022 µM, greater than 50 µM and greater than 50 µM, respectively.
Consider `O=C1CCC(N2Cc3cc(C4CCN(Cc5ccc(C(F)F)cc5)CC4)ccc3C2=O)C(=O)N1` (centres unmarked) [Compound I-70, 3-(5-(1-(4-(difluoromethyl)benzyl)piperidin-4-yl)-1-oxoisoindolin-2-yl)piperidine-2,6-dione], for which the inhibition at 10 µM at IKZF2 (setting [1]) is 75%. Besides, the values for the DC50 at IKZF2 (setting [2]), on IKZF1 and at GSPT1 were 0.012 µM, greater than 30 µM and greater than 30 µM, respectively.
`Cn1nc(CN2CCC(c3ccc4c(c3)CN(C3CCC(=O)NC3=O)C4=O)CC2)c2ccccc21` (centres unmarked) [Compound I-203, 3-(5-(1-((1-methyl-1H-indazol-3-yl)methyl)piperidin-4-yl)-1-oxoisoindolin-2-yl)piperidine-2,6-dione]: the inhibition at 10 µM at IKZF2 (setting [1]) was 50%. The DC50 is 0.016 µM on IKZF2 (setting [2]), greater than 30 µM on IKZF1 and greater than 30 µM at GSPT1.
Consider `O=C1CCC(N2Cc3cc(C4CCN(c5ccccc5)CC4)ccc3C2=O)C(=O)N1` (centres unmarked) [Compound I-170, 3-(1-oxo-5-(1-phenylpiperidin-4-yl)isoindolin-2-yl)piperidine-2,6-dione], for which, at IKZF2 (10 μM, 24 h, 293GT cells; read-out: IKZF2 % protein reduction at 10 μM, 24 h), the inhibition at 10 µM came to 5%. Also, the DC50 at IKZF1 and on GSPT1 was greater than 50 µM in each case.
Regarding `NC(=O)c1cccc(CN2CCC(c3ccc4c(c3)CN(C3CCC(=O)NC3=O)C4=O)CC2)c1` (centres unmarked) [Compound I-139, 3-((4-(2-(2,6-dioxopiperidin-3-yl)-1-oxoisoindolin-5-yl)piperidin-1-yl)methyl)benzamide], the inhibition at 10 µM at IKZF2 (setting [1]) worked out at 70%. The DC50 was 0.081 µM at IKZF2 (setting [2]), greater than 30 µM on IKZF1 and greater than 30 µM on GSPT1.
With `Cc1ccc2c(CN3CCC(c4ccc5c(c4)CN(C4CCC(=O)NC4=O)C5=O)CC3)c[nH]c2c1` (centres unmarked) [Compound I-149, 3-(5-(1-((6-methyl-1H-indol-3-yl)methyl)piperidin-4-yl)-1-oxoisoindolin-2-yl)piperidine-2,6-dione], the inhibition at 10 µM on IKZF2 (setting [1]) amounted to 80%. Moreover, the figures for the DC50 on IKZF2 (setting [2]), at IKZF1 and at GSPT1 were 0.016 µM, greater than 30 µM and greater than 30 µM, respectively.
As to `O=C1CCC(N2Cc3cc(C4CCN(Cc5ccc(C6CCCC6)cc5)CC4)ccc3C2=O)C(=O)N1` (centres unmarked) [Compound I-110, 3-(5-(1-(4-cyclopentylbenzyl)piperidin-4-yl)-1-oxoisoindolin-2-yl)piperidine-2,6-dione], the inhibition at 10 µM on IKZF2 (setting [1]) is 75%. Also, the DC50 is 0.074 µM at IKZF2 (setting [2]), greater than 30 µM at IKZF1 and greater than 30 µM on GSPT1.
As for `O=C1CCC(N2Cc3cc(C4CCNCC4)ccc3C2=O)C(=O)N1` (centres unmarked) [Compound I-155, 3-(1-oxo-5-(piperidin-4-yl)isoindolin-2-yl)piperidine-2,6-dione], at IKZF2 (setting [1]), the inhibition at 10 µM amounted to 40%. The DC50 at IKZF1 and on GSPT1 was greater than 50 µM each time.
As to `O=C1CCC(N2Cc3cc(C4CCN(Cc5ccc6scnc6c5)CC4)ccc3C2=O)C(=O)N1` (centres unmarked) [Compound I-130, 3-(5-(1-(benzo[d]thiazol-5-ylmethyl)piperidin-4-yl)-1-oxoisoindolin-2-yl)piperidine-2,6-dione], the inhibition at 10 µM at IKZF2 (setting [1]) is 80%. In addition, the DC50 is 0.008 µM at IKZF2 (setting [2]), greater than 30 µM at IKZF1 and greater than 30 µM at GSPT1.
As to `Cc1onc(-c2ccccc2)c1CN1CCC(c2ccc3c(c2)CN(C2CCC(=O)NC2=O)C3=O)CC1` (centres unmarked) [Compound I-251, 3-(5-(1-((5-methyl-3-phenylisoxazol-4-yl)methyl)piperidin-4-yl)-1-oxoisoindolin-2-yl)piperidine-2,6-dione], the inhibition at 10 µM at IKZF2 (setting [1]) came to 60%. The DC50 on IKZF2 (setting [2]) is 0.021 µM; at IKZF1, greater than 30 µM; at GSPT1 it was greater than 30 µM.
In the case of `O=C1CCC(N2Cc3cc(C4CCN(Cc5cccc6c5CCCC6)CC4)ccc3C2=O)C(=O)N1` (centres unmarked) [Compound I-164, 3-(1-oxo-5-(1-((5,6,7,8-tetrahydronaphthalen-1-yl)methyl)piperidin-4-yl)isoindolin-2-yl)piperidine-2,6-dione], the inhibition at 10 µM at IKZF2 (setting [1]) came to 50%. In addition, the DC50 on IKZF2 (setting [2]) is 0.018 µM; at IKZF1 it was greater than 50 µM; at GSPT1, greater than 50 µM.
On to `O=C1CCC(N2Cc3cc(C4CCN(Cc5ccc6ccc(F)cc6n5)CC4)ccc3C2=O)C(=O)N1` (centres unmarked) [Compound I-232, 3-(5-(1-((7-fluoroquinolin-2-yl)methyl)piperidin-4-yl)-1-oxoisoindolin-2-yl)piperidine-2,6-dione], for which, at IKZF2 (setting [1]), the inhibition at 10 µM turned out to be 70%. Moreover, the results for the DC50 at IKZF2 (setting [2]), on IKZF1 and at GSPT1 were 0.018 µM, greater than 30 µM and greater than 30 µM, respectively.
